Measured values taken from publication PMC3335988 (Neurochemistry international, 2011).
Structures can show the parent of a compound that is named as a salt. Where two headings read alike, the source gives them in different places. Marks after values point to notes of the source that are not given here.

Assays:
rat GluN1/GluN2C = rat GluN1/GluN2C (Rattus norvegicus, UniProt P35439+Q00961); type: cell-based; settings: for nH (Hill slope): 30 µM glycine
human GluN1/GluN2D [1] = biological target: T1, human GluN1/GluN2D (Homo sapiens, UniProt O15399+Q05586); test: cell-based; type: cell-based
human GluN1/GluN2B = human GluN1/GluN2B (Homo sapiens, UniProt Q05586+Q13224); test: cell-based; type: cell-based; settings: for nH (Hill slope, inhibition) / nH (Hill slope) / EC50: human GluN1/GluN2B; for nH (Hill slope, inhibition): 100 µM glutamate plus 30 µM glycine; for nH (Hill slope, inhibition) / EC50: -40 mV
human GluN1/GluN2C = human GluN1/GluN2C (Homo sapiens, UniProt Q05586+Q14957, INS1047EPP); test: cell-based; type: cell-based
rat GluN1/GluN2A [2] = biological target: T2, rat GluN1/GluN2A (Rattus norvegicus, UniProt P35439+Q00959); test: Two-electrode voltage-clamp recordings, recombinant receptors in Xenopus oocytes; type: cell-based; settings: for nH (Hill slope, inhibition): 100 µM glutamate plus 30 µM glycine; for nH (Hill slope): 30 µM glycine
human GluN1/GluN2A = human GluN1/GluN2A (Homo sapiens, UniProt Q05586+Q12879); type: cell-based; settings: for nH (Hill slope, inhibition): 100 µM glutamate plus 30 µM glycine
rat GluN1/GluN2D [3] = biological target: T3, rat GluN1/GluN2D (Rattus norvegicus, UniProt P35439+Q62645); type: cell-based; settings: for nH (Hill slope): 30 µM glycine
rat GluN1/GluN2B [4] = biological target: T4, rat GluN1/GluN2B (Rattus norvegicus, UniProt P35439+Q00960); test: cell-based; type: cell-based; settings: for nH (Hill slope, inhibition): 100 µM glutamate plus 30 µM glycine; for nH (Hill slope): 30 µM glycine
[5] = tested on: human and rat NMDA receptor subtypes; test: Two-electrode voltage-clamp, relative agonist efficacy across subtypes; type: cell-based; settings: range over human and rat subtypes; same recording; 30 µM glycine
human GluN1/GluN2D [6] = biological target: T1, human GluN1/GluN2D; settings: HEK293 cells, 2 mM extracellular Ca2+, ref Hess et al., 1998; cited from earlier work
rat GluN1/GluN2A [7] = biological target: T2, rat GluN1/GluN2A; settings: HEK293 cells, 2 mM extracellular Ca2+, ref Vicini et al., 1998; cited from earlier work
rat GluN1/GluN2D [8] = biological target: T3, rat GluN1/GluN2D; settings: Table 2, ref Hansen and Traynelis, 2011; cited from earlier work
rat GluN1/GluN2B [9] = biological target: T4, rat GluN1/GluN2B; settings: HEK293 cells, 2 mM extracellular Ca2+, ref Vicini et al., 1998; cited from earlier work
[10] = rat GluN1/GluN2C, 100 µM glutamate plus 30 µM glycine, -40 mV
[11] = rat GluN1/GluN2D, 100 µM glutamate plus 30 µM glycine, -40 mV
[12] = rat GluN1/GluN2C, 100 µM glutamate plus 30 µM glycine
[13] = human GluN1/GluN2D, 100 µM glutamate plus 30 µM glycine
[14] = rat GluN1/GluN2D, 100 µM glutamate plus 30 µM glycine
[15] = human GluN1/GluN2D, 100 µM glutamate plus 30 µM glycine, -40 mV
[16] = human GluN1/GluN2C, 100 µM glutamate plus 30 µM glycine, -40 mV

Sequence of human GluN1/GluN2A (Q12879 23-1464, other chains not shown): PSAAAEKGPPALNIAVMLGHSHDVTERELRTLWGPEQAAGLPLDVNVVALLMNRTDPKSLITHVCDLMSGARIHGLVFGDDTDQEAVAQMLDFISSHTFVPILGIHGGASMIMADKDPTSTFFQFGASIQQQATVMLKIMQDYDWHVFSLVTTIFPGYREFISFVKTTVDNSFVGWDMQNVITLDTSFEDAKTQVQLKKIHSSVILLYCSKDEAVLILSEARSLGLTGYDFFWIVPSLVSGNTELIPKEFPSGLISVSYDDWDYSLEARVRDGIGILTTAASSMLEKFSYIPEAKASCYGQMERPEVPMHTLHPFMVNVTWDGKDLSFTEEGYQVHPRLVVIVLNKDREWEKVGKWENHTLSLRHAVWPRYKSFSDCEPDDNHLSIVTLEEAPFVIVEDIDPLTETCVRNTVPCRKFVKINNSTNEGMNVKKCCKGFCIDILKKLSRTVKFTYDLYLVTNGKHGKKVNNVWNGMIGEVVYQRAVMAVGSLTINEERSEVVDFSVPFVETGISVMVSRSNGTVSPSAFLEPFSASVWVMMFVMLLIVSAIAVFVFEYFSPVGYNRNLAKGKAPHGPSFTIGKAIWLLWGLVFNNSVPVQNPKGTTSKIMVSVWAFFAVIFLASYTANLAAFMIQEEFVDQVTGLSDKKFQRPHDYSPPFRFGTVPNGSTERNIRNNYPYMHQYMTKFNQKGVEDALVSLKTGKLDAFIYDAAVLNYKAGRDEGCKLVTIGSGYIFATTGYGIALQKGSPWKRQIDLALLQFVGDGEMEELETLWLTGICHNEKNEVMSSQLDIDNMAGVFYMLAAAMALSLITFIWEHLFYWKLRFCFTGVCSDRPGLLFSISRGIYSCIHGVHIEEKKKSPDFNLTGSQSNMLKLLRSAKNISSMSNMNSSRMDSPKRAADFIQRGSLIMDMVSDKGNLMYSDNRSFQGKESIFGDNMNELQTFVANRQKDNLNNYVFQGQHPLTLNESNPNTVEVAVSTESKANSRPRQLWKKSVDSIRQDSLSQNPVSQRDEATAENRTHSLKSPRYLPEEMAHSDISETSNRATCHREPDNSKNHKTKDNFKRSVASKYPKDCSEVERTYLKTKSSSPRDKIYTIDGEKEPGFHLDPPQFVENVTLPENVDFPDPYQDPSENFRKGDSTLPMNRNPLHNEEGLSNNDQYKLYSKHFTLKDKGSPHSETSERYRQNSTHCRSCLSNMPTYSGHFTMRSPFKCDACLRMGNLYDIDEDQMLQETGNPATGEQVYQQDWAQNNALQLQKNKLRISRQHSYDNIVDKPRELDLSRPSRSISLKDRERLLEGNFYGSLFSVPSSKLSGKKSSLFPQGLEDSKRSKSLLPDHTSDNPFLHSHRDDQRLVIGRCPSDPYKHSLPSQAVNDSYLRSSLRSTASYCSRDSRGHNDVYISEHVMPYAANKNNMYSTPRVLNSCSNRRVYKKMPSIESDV
T4 sequence (Q00960 27-1482, other chains not shown): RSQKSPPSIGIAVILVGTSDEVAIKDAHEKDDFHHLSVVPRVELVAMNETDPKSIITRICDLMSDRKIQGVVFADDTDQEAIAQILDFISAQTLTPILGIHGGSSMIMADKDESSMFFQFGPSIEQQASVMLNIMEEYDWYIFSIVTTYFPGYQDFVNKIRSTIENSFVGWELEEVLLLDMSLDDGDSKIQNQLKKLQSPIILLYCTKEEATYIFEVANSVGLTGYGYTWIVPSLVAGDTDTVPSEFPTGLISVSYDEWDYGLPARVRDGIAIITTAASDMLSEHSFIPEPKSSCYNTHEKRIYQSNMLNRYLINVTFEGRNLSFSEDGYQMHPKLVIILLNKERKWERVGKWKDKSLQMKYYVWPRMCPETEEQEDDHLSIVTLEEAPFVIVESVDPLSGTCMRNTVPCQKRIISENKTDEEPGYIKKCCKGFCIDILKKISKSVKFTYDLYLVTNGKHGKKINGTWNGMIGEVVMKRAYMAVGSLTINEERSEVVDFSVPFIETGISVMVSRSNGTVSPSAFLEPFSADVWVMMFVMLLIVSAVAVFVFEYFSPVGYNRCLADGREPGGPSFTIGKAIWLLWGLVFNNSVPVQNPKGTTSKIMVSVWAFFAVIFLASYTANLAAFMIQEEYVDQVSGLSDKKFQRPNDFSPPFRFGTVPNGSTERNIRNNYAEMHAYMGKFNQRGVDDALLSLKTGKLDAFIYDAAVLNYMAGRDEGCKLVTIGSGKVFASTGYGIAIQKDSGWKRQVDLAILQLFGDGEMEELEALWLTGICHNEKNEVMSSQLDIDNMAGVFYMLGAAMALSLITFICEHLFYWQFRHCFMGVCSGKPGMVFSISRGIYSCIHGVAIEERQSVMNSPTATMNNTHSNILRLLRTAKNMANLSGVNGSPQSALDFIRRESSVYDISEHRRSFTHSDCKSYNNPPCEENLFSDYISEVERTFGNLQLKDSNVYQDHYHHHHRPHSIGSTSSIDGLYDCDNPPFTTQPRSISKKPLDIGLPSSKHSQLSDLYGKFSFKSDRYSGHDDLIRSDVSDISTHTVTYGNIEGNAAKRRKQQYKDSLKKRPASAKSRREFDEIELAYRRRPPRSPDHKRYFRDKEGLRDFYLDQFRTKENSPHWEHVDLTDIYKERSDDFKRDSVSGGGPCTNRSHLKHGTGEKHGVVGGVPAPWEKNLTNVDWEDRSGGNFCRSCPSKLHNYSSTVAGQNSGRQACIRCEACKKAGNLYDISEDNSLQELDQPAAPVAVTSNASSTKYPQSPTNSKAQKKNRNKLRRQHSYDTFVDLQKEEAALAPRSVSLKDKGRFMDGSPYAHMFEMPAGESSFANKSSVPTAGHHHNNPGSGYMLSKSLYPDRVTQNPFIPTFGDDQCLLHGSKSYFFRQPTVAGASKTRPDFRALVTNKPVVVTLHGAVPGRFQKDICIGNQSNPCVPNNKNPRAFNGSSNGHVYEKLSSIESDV
Sequence of human GluN1/GluN2B (Q13224 27-1484, other chains not shown): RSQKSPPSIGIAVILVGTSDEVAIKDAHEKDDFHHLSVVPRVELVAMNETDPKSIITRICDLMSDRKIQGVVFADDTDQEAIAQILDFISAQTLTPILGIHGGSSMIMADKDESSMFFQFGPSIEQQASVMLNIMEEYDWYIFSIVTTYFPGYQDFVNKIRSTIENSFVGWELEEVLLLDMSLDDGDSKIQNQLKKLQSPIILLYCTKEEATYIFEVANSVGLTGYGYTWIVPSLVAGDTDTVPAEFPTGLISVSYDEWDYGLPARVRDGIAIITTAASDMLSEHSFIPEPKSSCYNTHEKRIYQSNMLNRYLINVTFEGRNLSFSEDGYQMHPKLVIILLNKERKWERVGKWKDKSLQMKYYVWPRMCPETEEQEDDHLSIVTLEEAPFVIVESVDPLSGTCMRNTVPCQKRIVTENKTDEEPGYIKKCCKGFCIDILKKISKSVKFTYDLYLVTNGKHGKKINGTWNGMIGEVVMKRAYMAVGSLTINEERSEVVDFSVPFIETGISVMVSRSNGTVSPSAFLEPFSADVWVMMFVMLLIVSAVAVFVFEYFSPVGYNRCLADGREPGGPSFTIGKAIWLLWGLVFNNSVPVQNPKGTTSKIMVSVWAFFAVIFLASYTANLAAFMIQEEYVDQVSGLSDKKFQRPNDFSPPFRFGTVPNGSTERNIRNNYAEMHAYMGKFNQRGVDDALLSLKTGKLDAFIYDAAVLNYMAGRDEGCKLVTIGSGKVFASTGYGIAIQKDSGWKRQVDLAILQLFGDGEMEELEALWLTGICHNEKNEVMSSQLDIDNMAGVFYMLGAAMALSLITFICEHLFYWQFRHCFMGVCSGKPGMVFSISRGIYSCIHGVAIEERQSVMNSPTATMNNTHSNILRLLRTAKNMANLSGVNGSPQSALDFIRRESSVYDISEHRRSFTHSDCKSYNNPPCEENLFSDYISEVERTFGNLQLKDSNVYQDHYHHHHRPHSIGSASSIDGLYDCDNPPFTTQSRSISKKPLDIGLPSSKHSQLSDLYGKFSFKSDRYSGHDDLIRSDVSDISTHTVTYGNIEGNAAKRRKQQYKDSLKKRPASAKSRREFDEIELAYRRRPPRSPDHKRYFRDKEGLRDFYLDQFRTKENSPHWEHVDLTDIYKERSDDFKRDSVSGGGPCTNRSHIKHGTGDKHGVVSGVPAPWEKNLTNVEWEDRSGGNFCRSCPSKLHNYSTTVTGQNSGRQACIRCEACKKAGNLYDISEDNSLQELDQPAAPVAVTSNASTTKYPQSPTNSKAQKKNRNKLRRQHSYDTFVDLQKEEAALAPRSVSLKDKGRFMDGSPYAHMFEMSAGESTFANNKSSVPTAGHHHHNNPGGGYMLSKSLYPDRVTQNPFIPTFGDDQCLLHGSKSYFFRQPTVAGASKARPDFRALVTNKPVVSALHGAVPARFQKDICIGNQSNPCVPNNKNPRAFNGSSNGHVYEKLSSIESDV

In the case of `CN[C@]1(c2ccccc2Cl)CCCCC1=O` [(+)ketamine, S-(+)-ketamine hydrochloride], the “nH (Hill slope, inhibition)” value (rat GluN1/GluN2C; [10]) is reported as 1.0, the IC50 (human GluN1/GluN2D [1]) is reported as 2.4 ± 0.1 µM and the “nH (Hill slope, inhibition)” value (human GluN1/GluN2D [1]) is reported as 0.9. For the same compound, the “nH (Hill slope, inhibition)” value (human GluN1/GluN2B) was 1.0, the IC50 (human GluN1/GluN2C) was 0.79 ± 0.04 µM and the “nH (Hill slope, inhibition)” value (human GluN1/GluN2C) was 0.9. For the same compound, the “nH (Hill slope, inhibition)” value (rat GluN1/GluN2A [2]; rat GluN1/GluN2A, -40 mV) was 1.0, the “nH (Hill slope, inhibition)” value (human GluN1/GluN2A; -40 mV) was 1.0 and the “IC50 fold lower at rat compared to corresponding human subtype” value (rat GluN1/GluN2D [3]; GluN1/GluN2D, rat vs human) was 1.7 fold. The “nH (Hill slope, inhibition)” value (rat GluN1/GluN2D [3]; [11]) was 1.0, the “IC50 fold lower at rat compared to corresponding human subtype” value (rat GluN1/GluN2B [4]; GluN1/GluN2B, rat vs human) was 1.6 fold and the “nH (Hill slope, inhibition)” value (rat GluN1/GluN2B [4]; rat GluN1/GluN2B, -40 mV) was 0.9.

With `COc1ccc(OCC2c3cc(OC)c(OC)cc3CCN2C(=O)c2cccc(Cl)c2)cc1` (centres unmarked) [CIQ, (3-chlorophenyl) [3,4-dihydro-6,7-dimethoxy-1-[(4-methoxyphenoxy)methyl]-2(1H)-isoquinolinyl]methanone] the “maximal potentiation compared to NMDA receptor currents in the absence of CIQ” value (rat GluN1/GluN2C; [12]) was 260 ± 30, the “nH (Hill slope, potentiation)” value (rat GluN1/GluN2C; [12]) was 1.1 and the “maximal potentiation compared to NMDA receptor currents in the absence of CIQ” value (human GluN1/GluN2D [1]; [13]) was 250 ± 10. The “nH (Hill slope, potentiation)” value (human GluN1/GluN2D [1]; [13]) was 1.3, the “nH (Hill slope, potentiation)” value (human GluN1/GluN2C; human GluN1/GluN2C, 100 µM glutamate plus 30 µM glycine) was 1.6 and the “maximal potentiation compared to NMDA receptor currents in the absence of CIQ” value (rat GluN1/GluN2D [3]; [14]) was 240 ± 20. For the same compound, the “nH (Hill slope, potentiation)” value (rat GluN1/GluN2D [3]; [14]) was 1.3.

In the case of `CN[C@H](CC(=O)O)C(=O)O` [NMDA, N-methyl-D-aspartate], the “nH (Hill slope)” value (rat GluN1/GluN2C; rat GluN1/GluN2C) is reported as 1.4, the EC50 (rat GluN1/GluN2C; rat GluN1/GluN2C, continuous presence of 30 µM glycine, -40 mV) is reported as 19 ± 2 µM and the EC50 (human GluN1/GluN2D [1]) is reported as 6.7 ± 0.2 µM. For the same compound, the “nH (Hill slope)” value (human GluN1/GluN2D [1]) was 2.1, the “nH (Hill slope)” value (human GluN1/GluN2B; 30 µM glycine) was 1.4 and the EC50 (human GluN1/GluN2B; continuous presence of 30 µM glycine) was 23 ± 2 µM. The EC50 (human GluN1/GluN2C) was 19 ± 1 µM, the “nH (Hill slope)” value (human GluN1/GluN2C) was 1.2 and the “maximal activation compared to maximal activation by the full agonist glutamate” value [5] was 69–89%. For the same compound, the “nH (Hill slope)” value (rat GluN1/GluN2A [2]; rat GluN1/GluN2A) was 1.5, the EC50 (rat GluN1/GluN2A [2]; rat GluN1/GluN2A, continuous presence of 30 µM glycine, -40 mV) was 71 ± 9 µM and the “nH (Hill slope)” value (human GluN1/GluN2A; 30 µM glycine) was 1.3. For the same compound, the EC50 (human GluN1/GluN2A; continuous presence of 30 µM glycine, -40 mV) was 68 ± 3 µM, the “nH (Hill slope)” value (rat GluN1/GluN2D [3]; rat GluN1/GluN2D) was 1.7 and the EC50 (rat GluN1/GluN2D [3]; rat GluN1/GluN2D, continuous presence of 30 µM glycine, -40 mV) was 7.9 ± 0.9 µM. For the same compound, the “nH (Hill slope)” value (rat GluN1/GluN2B [4]; rat GluN1/GluN2B) was 1.7 and the EC50 (rat GluN1/GluN2B [4]; rat GluN1/GluN2B, continuous presence of 30 µM glycine, -40 mV) was 21 ± 4 µM.

In the case of `COc1ccc2nc(/C=C/c3cccc([N+](=O)[O-])c3)n(-c3ccc(C(=O)O)cc3)c(=O)c2c1` [QNZ46, (E)-4-(6-methoxy-2-(3-nitrostyryl)-4-oxoquinazolin-3(4H)-yl)-benzoic acid], the “IC50 fold higher at rat compared to human” value (rat GluN1/GluN2C; GluN1/GluN2C, rat vs human) is reported as 1.2 fold, the “nH (Hill slope, inhibition)” value (rat GluN1/GluN2C; [10]) is reported as 1.2 and the “nH (Hill slope, inhibition)” value (human GluN1/GluN2D [1]; [15]) is reported as 1.0. The IC50 (human GluN1/GluN2B) was greater than 100 µM, the “nH (Hill slope, inhibition)” value (human GluN1/GluN2C; [16]) was 1.0 and the “nH (Hill slope, inhibition)” value (rat GluN1/GluN2D [3]; [11]) was 1.0. It also gave an IC50 (rat GluN1/GluN2B [4]) greater than 100 µM.

In the case of `NC(=NCc1ccc(Cl)cc1)SCCCc1cnc[nH]1` [clobenpropit, N-(4-chlorobenzyl)-S-[3-(4(5)-imidazolyl)propyl]isothiourea dihydrobromide], the “nH (Hill slope, inhibition)” value (rat GluN1/GluN2C; [10]) is reported as 0.8, the “nH (Hill slope, inhibition)” value (human GluN1/GluN2D [1]; [15]) is reported as 1.0 and the “nH (Hill slope, inhibition)” value (human GluN1/GluN2B) is reported as 1.0. The “nH (Hill slope, inhibition)” value (human GluN1/GluN2C; [16]) was 0.9, the “IC50 fold higher at rat compared to human” value (rat GluN1/GluN2A [2]; GluN1/GluN2A, rat vs human) was 1.9 fold and the “nH (Hill slope, inhibition)” value (human GluN1/GluN2A; -40 mV) was 1.0. For the same compound, the “nH (Hill slope, inhibition)” value (rat GluN1/GluN2D [3]; [11]) was 0.9 and the “nH (Hill slope, inhibition)” value (rat GluN1/GluN2B [4]; rat GluN1/GluN2B, -40 mV) was 1.3.

For `OC(CN1CCC(Cc2ccc(F)cc2)CC1)c1ccc(Cl)cc1` (stereo not drawn) [eliprodil, α-(4-chlorophenyl)-4-[(4-fluorophenyl)methyl]-1-piperidineethanol], the “nH (Hill slope, inhibition)” value (human GluN1/GluN2B) was 1.3 and the “nH (Hill slope, inhibition)” value (rat GluN1/GluN2B [4]; rat GluN1/GluN2B, -40 mV) was 1.2.

For `N[C@@H](CCC(=O)O)C(=O)O` [glutamate, L-glutamic acid], the “τdeactivation glutamate (weighted time constant)” value (from here on “τdeactivation glutamate”) (human GluN1/GluN2D [6]) is listed as 6300 ^a ms, the “τdeactivation glutamate” value (rat GluN1/GluN2A [7]) is listed as 54 ^k ms and the “nH (Hill slope)” value (rat GluN1/GluN2C; rat GluN1/GluN2C) is listed as 1.4. For the same compound, the “nH (Hill slope)” value (human GluN1/GluN2D [1]) was 1.5, the “nH (Hill slope)” value (human GluN1/GluN2B; 30 µM glycine) was 1.8 and the “nH (Hill slope)” value (human GluN1/GluN2C) was 1.6. The “τdeactivation following removal of glutamate” value (rat GluN1/GluN2D [8]) was greater than 2 s, the “nH (Hill slope)” value (rat GluN1/GluN2A [2]; rat GluN1/GluN2A) was 1.4 and the “nH (Hill slope)” value (human GluN1/GluN2A; 30 µM glycine) was 1.3. The “τdeactivation glutamate” value (rat GluN1/GluN2B [9]) was 287 ^k ms, the “nH (Hill slope)” value (rat GluN1/GluN2D [3]; rat GluN1/GluN2D) was 1.5 and the “nH (Hill slope)” value (rat GluN1/GluN2B [4]; rat GluN1/GluN2B) was 1.5.

For `NCC(=O)O` [glycine], the “τdeactivation glycine (weighted time constant)” value (human GluN1/GluN2D [6]) is given as 1800 ^a ms, the EC50 (human GluN1/GluN2D [1]) is given as 0.12 ± 0.01 µM and the “nH (Hill slope)” value (human GluN1/GluN2D [1]) is given as 1.8. The “nH (Hill slope)” value (human GluN1/GluN2B; 100 µM glutamate) was 1.7, the EC50 (human GluN1/GluN2B; continuous presence of 100 µM glutamate) was 0.29 ± 0.04 µM and the EC50 (human GluN1/GluN2C) was 0.25 ± 0.01 µM. For the same compound, the “nH (Hill slope)” value (human GluN1/GluN2C) was 1.6 and the “nH (Hill slope)” value (human GluN1/GluN2A; 100 µM glutamate) was 1.3.

For `CC(C(O)c1ccc(O)cc1)N1CCC(Cc2ccccc2)CC1` (stereo not drawn) [ifenprodil, (1R*,2S*)-erythro-2-(4-benzylpiperidino)-1-(4-hydroxyphenyl)-1-propanol hemitartrate], the “nH (Hill slope, inhibition)” value (human GluN1/GluN2B) was 1.1, the “nH (Hill slope, inhibition)” value (rat GluN1/GluN2A [2]; rat GluN1/GluN2A, -40 mV) was 1.2 and the “nH (Hill slope, inhibition)” value (rat GluN1/GluN2B [4]; rat GluN1/GluN2B, -40 mV) was 1.2.

With `CC12CC3CC(C)(C1)CC(N)(C3)C2` [memantine, memantine hydrochloride] the “nH (Hill slope, inhibition)” value (human GluN1/GluN2D [1]) was 0.9, the “nH (Hill slope, inhibition)” value (human GluN1/GluN2B) was 1.0 and the “nH (Hill slope, inhibition)” value (human GluN1/GluN2C) was 1.0. For the same compound, the “nH (Hill slope, inhibition)” value (human GluN1/GluN2A; -40 mV) was 1.1.
